Results: US10653695B2, “Pharmaceutical formulations of neflamapimod” (EIP Pharma, LLC, priority 2018, dated 2020)

Experiments:
[1] = cited from earlier work
[2] = Dissolution testing (USP <711>, Apparatus 2) of neflamapimod capsules and blends, including on stability; format: physicochemical; details: powder-in-capsule vs capsules stored at 40° C./75% RH; FIG. 1
Source text: USP Dissolution Acceptance Criteria. Dissolution testing of a drug product is a method for evaluating physiological availability that depends upon having the drug in a dissolved state. The United States Pharmacopoeia (“USP”) dissolution testing <USP 711> involves three stages with the acceptance criteria defined for each stage as a function of a quantity Q, a percentage of the label value that is established for each drug product.
Dissolution testing data described herein are generated according to the specifications shown below in Table 3 and using the procedure set forth by the United States Pharmacopeial Convention in USP <711>.
Determined by the procedure set forth in Example 1.1.

For O=c1ncn2nc(Sc3ccc(F)cc3F)ccc2c1-c1c(Cl)cccc1Cl [Neflamapimod], the Solubility in water [1] is listed as “very low” and the “Dissolution compared to the aged capsules” value [2] is listed as “better dissolution”.
